Experimental data taken from patent US20120100072A1, “PET IMAGING OF FIBROGENESIS” (GE HEALTHCARE LIMITED, priority 2009, published 2012).

Legend:
[1] = target: T1, membranes prepared from EA-Hy926 cells (integrin αvβ3) (Homo sapiens, UniProt P05106+P06756); experiment: Competitive 125I-echistatin binding to membranes prepared from EA-Hy926 cells; settings: competition with 125I-echistatin, 1 hour at 37° C., read-out: affinity (inhibition constant)
T1 construct: membranes from the human endothelial adenocarcinoma cell line EA-Hy926 were prepared; endogenous in cells; host or cells: EA-Hy926 (human endothelial cell line), purified membrane fraction
Description: The inhibition constant was measured using a previously-described membrane binding assay (Indrevoll et al, Bioorg & Med Chem Lett, 2006, 16, 6190-6193). In brief, membranes from the human endothelial adenocarcinoma cell line EA-Hy926 were prepared and the Kd calculated for the purified membrane fraction. A competitive binding assay was then established to measure inhibition constants. ^125I-echistatin (GE Healthcare; Code IM304) was used as the labelled ligand and cold echistatin as a reference standard. A total of sixteen dilutions of cold test compound (either cold echistatin or cold PET tracer) were prepared and mixed with a combination of ^125I-echistatin and membrane prior to incubation for 1 hour at 37° C. Following several washes, the bound material was harvested on a filter using a Skatron micro harvester. The filterspots were finally excised and counted in a Packard γ-counter.

rat livers = type: in vivo
Description: Outbred male Sprague Dawley rats (180-200 g; Charles River) were used in all bile duct ligation (BDL) and sham studies. After 6 days acclimatization rats were divided into 2 groups (BDL group and sham group). For the BDL animals, the abdomen was shaved and swabbed with betadine solution followed by 5 mg/kg carprofen subcutaneously (s.c.) and 5 mg/kg bupronorphine s.c. and under Isoflurane anaesthesia a mid-line laparotomy was performed and the common bile duct located. Bile duct was double ligated, the first ligation made between the junction of the hepatic ducts and the second above the entrance of the pancreatic ducts. The second group (sham animals) abdomen was shaved and swabbed with betadine solution followed by 5 mg/kg carprofen s.c. and 5 mg/kg bupronorphine s.c. Animals underwent sham surgery where bile duct was manipulated and a suture passed under the bile duct. Before closing 2-3 ml saline was administered into the peritoneum of each animal. […] Animals were closely monitored for the duration of the experiment.
For assessment of PET Tracer 1 in the BDL rat model, static PET images were acquired longitudinally (imaged at 60-90 minutes post-injection) at days 2, 5, 9, 15 and 30 post bile duct ligation surgery or sham surgery. […] Data was analysed using Asipro and Amide software. […]

alcoholic liver fibrosis = settings: baboons; cited from earlier work

| Ki [1] [nM] | Molecule | difference in uptake between BDL liver and sham (rat livers; day 30 post surgery) | difference in liver retention between BDL and sham operated animals (rat livers; days 2-15 post surgery (p<0.05)) | effect on alcoholic liver fibrosis (alcoholic liver fibrosis) |
| --- | --- | --- | --- | --- |
| 5 to 10 | N=C(N)NCCC[C@@H]1NC(=O)[C@@H]2CSSC[C@H](NC(=O)[C@H](CC(=O)O)NC(=O)CNC1=O)C(=O)N[C@@H](Cc1ccccc1)C(=O)N[C@H](C(=O)NCCOCCOCCOCCNC(=O)COCC(N)=O)CSCC(=O)N[C@@H](CCCCNC(=O)COCC(=O)NCCOCCOCCOCCOCCOCCNC(=O)CO/N=C/c1ccc([18F])cc1)C(=O)N2 [PET Tracer 1] | no significant difference | significant difference |  |
|  | Polyenephosphatidylcholine [Polyenephosphatidylcholine (PPC)] |  |  | prevented alcoholic liver fibrosis |
